Source: the supplement of paper PMC10307832

Each cell line was assayed with Cc1nc(NC(=O)N2CCC[C@H]2C(N)=O)sc1-c1ccnc(C(C)(C)C(F)(F)F)c1 [Alpelisib] + N=C(N)NC(=N)NCCc1ccccc1 [Phenformin] (partner 250 µM) (assay: relative viability (nuclei count vs DMSO), 5 days (fraction); higher = more cells survive). Settings: first compound 0.1265 µM.
How it was run: (§1)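 Lung cancer cell lines in 1536-well plates got either a single drug or a fixed anchor-drug dose together with five library-drug doses (not always all listed) in √10 steps, by pin tool, on the day after seeding. Nuclei were counted after 5 days, and relative viability is the treated-to-vehicle ratio of nuclei counts. Values are medians of duplicate plates.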

Cell Line | relative viability
NCI-H1623 | 0.545
NCI-H1650 | 0.408
NCI-H1793 | 0.322
NCI-H2342 | 0.587
H3255 | 0.375
NCI-H1975 | 0.41
PC-14 | 0.406
NCI-H1437 | 0.296
HOP-62 | 0.611
HCC-44 | 0.174
BEN | 0.239
LOU-NH91 | 0.58
NCI-H661 | 0.281
NCI-H1651 | 0.3
PC-3 [JPC-3] | 0.496
SW 1573 | 0.335
LK-2 | 0.233
NCI-H2405 | 0.345
NCI-H1993 | 0.534

Cell Line | relative viability
ChaGo-K-1 | 0.495
NCI-H1355 | 0.404
HCC-366 | 0.608
NCI-H2009 | 0.458
NCI-H2170 | 0.384
SK-LU-1 | 0.498
NCI-H522 | 0.601
COR-L23 | 0.414
NCI-H1944 | 0.214
NCI-H1563 | 0.698
NCI-H1395 | 0.395
NCI-H358 | 0.321
COR-L 105 | 0.593
NCI-H520 | 0.439
NCI-H2228 | 0.284
A549 | 0.21
SW 900 | 0.525
SK-MES-1 | 0.635

Same assay, conditions: first compound 0.4 µM

Cell Line | relative viability
NCI-H2126 | 0.501
EPLC-272H | 0.351
NCI-H1755 | 0.68
NCI-H2023 | 0.371
NCI-H1623 | 0.516
NCI-H1650 | 0.43
NCI-H1793 | 0.365
NCI-H2342 | 0.559
H3255 | 0.336
NCI-H1975 | 0.387
PC-14 | 0.67
NCI-H1437 | 0.291
HOP-62 | 0.761
HCC-44 | 0.187
BEN | 0.267
LOU-NH91 | 0.648
NCI-H661 | 0.253
NCI-H1651 | 0.33
PC-3 [JPC-3] | 0.503
SW 1573 | 0.272
LK-2 | 0.213

Cell Line | relative viability
NCI-H2405 | 0.368
NCI-H1993 | 0.443
ChaGo-K-1 | 0.453
NCI-H1355 | 0.438
HCC-366 | 0.636
NCI-H2009 | 0.555
NCI-H2170 | 0.438
SK-LU-1 | 0.434
NCI-H522 | 0.782
COR-L23 | 0.49
NCI-H1944 | 0.182
NCI-H1563 | 0.64
NCI-H1395 | 0.46
NCI-H358 | 0.338
COR-L 105 | 0.669
NCI-H520 | 0.417
NCI-H2228 | 0.306
A549 | 0.172
SW 900 | 0.449
SK-MES-1 | 0.755

Same assay, conditions: first compound 1.265 µM

Cell Line | relative viability
NCI-H2126 | 0.381
EPLC-272H | 0.279
NCI-H1755 | 0.574
NCI-H2023 | 0.287
NCI-H1623 | 0.532
NCI-H1650 | 0.362
NCI-H1793 | 0.301
NCI-H2342 | 0.519
H3255 | 0.25
NCI-H1975 | 0.298
PC-14 | 0.54
NCI-H1437 | 0.232
HOP-62 | 0.561
HCC-44 | 0.141
BEN | 0.296
LOU-NH91 | 0.525
NCI-H661 | 0.245
NCI-H1651 | 0.295
PC-3 [JPC-3] | 0.454
SW 1573 | 0.217
LK-2 | 0.226

Cell Line | relative viability
NCI-H2405 | 0.304
NCI-H1993 | 0.539
ChaGo-K-1 | 0.435
NCI-H1355 | 0.433
HCC-366 | 0.428
NCI-H2009 | 0.456
NCI-H2170 | 0.45
SK-LU-1 | 0.408
NCI-H522 | 0.5
COR-L23 | 0.402
NCI-H1944 | 0.16
NCI-H1563 | 0.604
NCI-H1395 | 0.374
NCI-H358 | 0.242
COR-L 105 | 0.416
NCI-H520 | 0.316
NCI-H2228 | 0.171
A549 | 0.16
SW 900 | 0.474
SK-MES-1 | 0.608

Same assay, conditions: first compound 4 µM

Cell Line | relative viability
NCI-H2126 | 0.343
EPLC-272H | 0.244
NCI-H1755 | 0.433
NCI-H2023 | 0.282
NCI-H1623 | 0.426
NCI-H1650 | 0.308
NCI-H1793 | 0.238
NCI-H2342 | 0.439
H3255 | 0.335
NCI-H1975 | 0.208
PC-14 | 0.526
NCI-H1437 | 0.215
HOP-62 | 0.633
HCC-44 | 0.161
BEN | 0.281
LOU-NH91 | 0.472
NCI-H661 | 0.262
NCI-H1651 | 0.275
PC-3 [JPC-3] | 0.463
SW 1573 | 0.257
LK-2 | 0.161

Cell Line | relative viability
NCI-H2405 | 0.272
NCI-H1993 | 0.507
ChaGo-K-1 | 0.346
NCI-H1355 | 0.332
HCC-366 | 0.139
NCI-H2009 | 0.468
NCI-H2170 | 0.387
SK-LU-1 | 0.358
NCI-H522 | 0.582
COR-L23 | 0.36
NCI-H1944 | 0.138
NCI-H1563 | 0.589
NCI-H1395 | 0.434
NCI-H358 | 0.16
COR-L 105 | 0.415
NCI-H520 | 0.311
NCI-H2228 | 0.175
A549 | 0.115
SW 900 | 0.347
SK-MES-1 | 0.675

These cell lines were tested with CCCS(=O)(=O)Nc1ccc(F)c(C(=O)c2c[nH]c3ncc(-c4ccc(Cl)cc4)cc23)c1F [Vemurafenib] + CS(=O)(=O)N1CCN(Cc2cc3nc(-c4cccc5[nH]ncc45)nc(N4CCOCC4)c3s2)CC1 [Pictilisib] (partner 1 µM) in the same assay as above. Settings: first compound 0.03162 µM.
How it was run: as §1

Cell Line | relative viability
NCI-H2126 | 0.494
EPLC-272H | 0.277
NCI-H1755 | 0.342
NCI-H2023 | 0.218
NCI-H1650 | 0.487
NCI-H1793 | 0.442
H3255 | 0.474
NCI-H1975 | 0.279
PC-14 | 0.584
NCI-H1299 | 0.732
NCI-H1437 | 0.445
HOP-62 | 0.739
HCC-44 | 0.443
BEN | 0.529
LOU-NH91 | 0.535
NCI-H661 | 0.347
NCI-H1651 | 0.523
PC-3 [JPC-3] | 0.649
SW 1573 | 0.475
LK-2 | 0.618
NCI-H2405 | 0.347

Cell Line | relative viability
NCI-H1703 | 0.245
NCI-H1993 | 0.767
ChaGo-K-1 | 0.657
NCI-H1355 | 0.419
HCC-366 | 0.137
NCI-H2009 | 0.829
Calu-6 | 0.888
NCI-H2170 | 0.305
SK-LU-1 | 0.545
COR-L23 | 0.684
NCI-H1944 | 0.318
NCI-H1563 | 0.666
NCI-H1395 | 0.672
NCI-H358 | 0.291
COR-L 105 | 0.467
NCI-H520 | 0.283
EBC-1 | 0.36
NCI-H2228 | 0.32
A549 | 0.532
IA-LM | 0.309
SK-MES-1 | 0.322

Same assay, conditions: first compound 0.1 µM

Cell Line | relative viability
NCI-H2126 | 0.4
EPLC-272H | 0.278
NCI-H1755 | 0.347
NCI-H2023 | 0.222
NCI-H1975 | 0.278
NCI-H1299 | 0.719
NCI-H1437 | 0.376
HOP-62 | 0.589
HCC-44 | 0.5
BEN | 0.593
LOU-NH91 | 0.459
NCI-H661 | 0.351
NCI-H1651 | 0.6
SW 1573 | 0.511
LK-2 | 0.49
NCI-H2405 | 0.467
NCI-H1703 | 0.21

Cell Line | relative viability
ChaGo-K-1 | 0.587
NCI-H1355 | 0.426
HCC-366 | 0.15
NCI-H2009 | 0.858
Calu-6 | 0.902
NCI-H2170 | 0.157
SK-LU-1 | 0.567
COR-L23 | 0.615
NCI-H1944 | 0.326
NCI-H1563 | 0.621
NCI-H1395 | 0.613
NCI-H520 | 0.369
EBC-1 | 0.335
NCI-H2228 | 0.362
A549 | 0.43
IA-LM | 0.358
SK-MES-1 | 0.192

Same assay, conditions: first compound 0.3162 µM

Cell Line | relative viability
NCI-H2126 | 0.572
EPLC-272H | 0.295
NCI-H1755 | 0.314
NCI-H2023 | 0.302
NCI-H1650 | 0.581
NCI-H1793 | 0.477
H3255 | 0.48
NCI-H1975 | 0.232
PC-14 | 0.805
NCI-H1299 | 0.843
NCI-H1437 | 0.512
HOP-62 | 0.517
HCC-44 | 0.478
BEN | 0.358
NCI-H661 | 0.292
NCI-H1651 | 0.665
PC-3 [JPC-3] | 0.857
SW 1573 | 0.585

Cell Line | relative viability
LK-2 | 0.661
NCI-H1703 | 0.233
NCI-H1993 | 0.801
NCI-H1355 | 0.377
NCI-H2009 | 0.605
Calu-6 | 0.741
NCI-H2170 | 0.254
COR-L23 | 0.598
NCI-H1944 | 0.331
NCI-H1563 | 0.584
NCI-H358 | 0.417
COR-L 105 | 0.406
NCI-H520 | 0.372
EBC-1 | 0.335
NCI-H2228 | 0.684
A549 | 0.607
IA-LM | 0.758
SK-MES-1 | 0.354

Same assay, conditions: first compound 1 µM

Cell Line | relative viability
NCI-H2126 | 0.471
EPLC-272H | 0.336
NCI-H1755 | 0.381
NCI-H2023 | 0.225
NCI-H1650 | 0.601
NCI-H1793 | 0.379
H3255 | 0.452
NCI-H1975 | 0.332
PC-14 | 0.696
NCI-H1299 | 0.622
NCI-H1437 | 0.333
HOP-62 | 0.458
HCC-44 | 0.646
BEN | 0.431
LOU-NH91 | 0.525
NCI-H661 | 0.433
NCI-H1651 | 0.527
PC-3 [JPC-3] | 0.82
SW 1573 | 0.52
LK-2 | 0.425
NCI-H2405 | 0.48

Cell Line | relative viability
NCI-H1703 | 0.252
NCI-H1993 | 0.831
ChaGo-K-1 | 0.625
NCI-H1355 | 0.395
HCC-366 | 0.163
NCI-H2009 | 0.572
Calu-6 | 0.822
NCI-H2170 | 0.293
SK-LU-1 | 0.532
COR-L23 | 0.544
NCI-H1944 | 0.307
NCI-H1563 | 0.647
NCI-H1395 | 0.521
NCI-H358 | 0.299
COR-L 105 | 0.368
NCI-H520 | 0.268
EBC-1 | 0.36
NCI-H2228 | 0.358
A549 | 0.453
IA-LM | 0.476
SK-MES-1 | 0.347
